Experimental data as given in US7875607B2, “7,8-bicycloakyl-chroman derivatives” (Ampere Life Sciences, Inc., priority 2004, dated 2011).

Legend:
[1] = test system: IL-1beta production in mouse microglial cell line; experiment: Interleukin-1β microglial cell assay; type: cell-based; settings: LPS 10 μg/ml and IFN gamma 10 ng/ml, 24 hours, read-out: EC50, inhibition of IL-1beta production
Protocol: This assay measures the release of IL-1β from a mouse microglial cell line following an inflammatory challenge with LPS and interferon-gamma. The ability of test articles to inhibit microglial cell activation and IL-1β release is determined by co-incubation of the test article with the inflammatory challenge.
Mouse microglial cells were seeded in poly-D-lysine coated 96-well plates at a density of 10,000 cells/well and allowed to attach for 24 hours. Cells were stimulated by addition of LPS (10 μg/ml) and IFN gamma (10 ng/ml) in the presence or absence of test article. The cells were then incubated for 24 hours at 37° C., after which time the media was removed and used for cytokine determination as described below.
Viability of mouse microglial cells after exposure to the test article was determined using a fluorescent viability dye, Cell Tracker Green. Cell Tracker Green was used at a working concentration of 5 μM in 1×HBSS. Cells were washed once with HBSS (200 μl/well) and 100 μl Cell Tracker Green was added to each well. Cells were then incubated at 37° C. for 30 minutes, after which time the Cell Tracker was removed and the cells were washed once with HBSS (200 μl/well). 100 μl fresh HBSS was added to each well and the plate was read on a Fluoroskan plate reader using an excitation wavelength of 485 nm and an emission wavelength of 538 nm.
Solutions: • Wash Buffer: PBS 1 L+500 μl Tween 20 (final 0.05%) pH 7.2-7.4. • Blocking Buffer: 500 ml PBS+5 g BSA V (1%)+25 g Sucrose (5%)+0.25 g Sodium Azide (0.05%). • Reagent Diluent: 500 ml PBS+5 g BSA V (1%) pH 7.2-7.4 and filter sterilize through 0.2 μm. • Stop Solution: 2N sulfuric acid.
Duo Set Preparations: • 1. The IL-1β capture antibody was reconstituted in 1 ml of PBS to give a final concentration of 720 μg/ml, and the working concentration was 4 μg/ml. For coating one 96-well plate (at 100 μl/well) 56 μl of the 720 μg/ml stock was diluted into 10 ml of PBS. • 2. The IL-1β standards were reconstituted in 0.5 ml of Reagent Diluent (70 ng/ml). For a high standard of 1 ng/ml (2 wells at 100 μl each+enough for series dilution) 7.1 μl of the 70 ng/ml standard were diluted into 0.5 ml of Reagent Diluent • 3. The IL-1β detection antibody was reconstituted in 1 ml of Reagent Diluent to give a final concentration of 18 μg/ml and the working concentration is 100 ng/ml. For one 96-well plate (at 100 μl/well) 56 μl of the 18 μg/ml stock was diluted into 10 ml of Reagent Diluent.
• The Costar EIA Hi-binding plate was coated with capture antibody at 4 μg/ml. Each well was coated with 100 μl, and the plate was sealed and incubated overnight at room temperature. • Each well was aspirated and washed 3× with Wash Buffer. Each well was filled to the top, dispensed, and any remaining buffer was removed by inverting the plate and gently blotting against clean paper towels. • Non-specific binding sites were blocked by adding 300 μl of Blocking Buffer to each well, and after sealing incubating for at least 1 hour at room temperature. • After washing the plate was now ready for the samples. Assay Procedure: • 100 μl of either standard or sample were added in each well of the capture-coated and pre-blocked plate. The plate was sealed and incubated for 2 hours at room temperature, followed with washing. • 100 μl of the detection antibody (10 ng/ml) were added to each well. […]

[2] = test system: MPTP treated C57/BL6 mice; experiment: MPTP animal model, pole test; type: in vivo, mouse; settings: for effect on the functional deficit produced by MPTP: 30 mg/kg/day, each of days 1-3
Protocol: MPTP/MPP^+-induced neurodegeneration of dopaminergic neurons is a well characterized model which is therefore widely used to understand the pathogenesis of Parkinson's disease. The compounds were tested against MPTP/MPP^+ induced neuronal death in vitro and in vivo as shown in the following examples. In vitro evaluation of protection against mitochondrial dysfunction is carried out using substantia nigra-derived dopaminergic progenitor cell line (as described in Son J H, et al J W. (1999) J Neurosci, 19:10-20), exposed to 1-methyl-4-phenylpyridinium (MPP^+). In vivo evaluation was carried out using mice that had been treated with 1-methyl-4-phenyl-1,2,3,6-tetrahydropyridine (MPTP), a neurotoxin. […] In a number of species, including humans, […] and rodents, MPTP produces an irreversible and severe parkinsonian syndrome which includes virtually all the clinical features of the disease.
Male C57/BL6 mice (Harlan, Ind.), weight 25-30 g, were used in all studies. MPTP-HCl (Sigma) was administered i.p. according to one of the following protocols. The maximum volume which was given per injection is 200 μL. In all studies, animals were euthanized with carbon dioxide and, brains removed for subsequent determination of dopamine depletion where appropriate.
The pole test evaluates motor co-ordination.
A rough surfaced metal pole (diameter 8 mm, height 50 cm) protruding from a cage filled with animal bedding was used for this test. Animals were placed head upwards at the top of the pole. They were required to turn and descend face downwards and the time taken for this was recorded (latency to reach bedding). Timing was started when the individual animal gripped the top of the pole and was stopped when all four limbs contacted the bedding.
All test compounds were administered ip. The maximum volume which was given per injection was 200 μL. Compounds were dosed up to twice daily, two days prior and 7 days post MPTP treatment.
A baseline reading was taken for each animal one day prior to MPTP treatment. All subsequent readings were normalized to the individual animal's baseline. Values were expressed as a percent baseline.
Data is percent baseline and expressed as mean±std dev: […]
Compound and vehicle given for 9 days in total, 2 days prior to MPTP and 7 days after MPTP treatment. L-DOPA given 1 hour prior to the pole test each day.

[3] = biological target: T1, human recombinant 5-lipoxygenase (Homo sapiens, UniProt P09917); experiment: 5-Lipoxygenase enzyme assay; type: biochemical; settings: 70 μM arachidonic acid, pH 7.4
T1 construct: purchased Cayman 60402
T1 sequence (P09917 1-674): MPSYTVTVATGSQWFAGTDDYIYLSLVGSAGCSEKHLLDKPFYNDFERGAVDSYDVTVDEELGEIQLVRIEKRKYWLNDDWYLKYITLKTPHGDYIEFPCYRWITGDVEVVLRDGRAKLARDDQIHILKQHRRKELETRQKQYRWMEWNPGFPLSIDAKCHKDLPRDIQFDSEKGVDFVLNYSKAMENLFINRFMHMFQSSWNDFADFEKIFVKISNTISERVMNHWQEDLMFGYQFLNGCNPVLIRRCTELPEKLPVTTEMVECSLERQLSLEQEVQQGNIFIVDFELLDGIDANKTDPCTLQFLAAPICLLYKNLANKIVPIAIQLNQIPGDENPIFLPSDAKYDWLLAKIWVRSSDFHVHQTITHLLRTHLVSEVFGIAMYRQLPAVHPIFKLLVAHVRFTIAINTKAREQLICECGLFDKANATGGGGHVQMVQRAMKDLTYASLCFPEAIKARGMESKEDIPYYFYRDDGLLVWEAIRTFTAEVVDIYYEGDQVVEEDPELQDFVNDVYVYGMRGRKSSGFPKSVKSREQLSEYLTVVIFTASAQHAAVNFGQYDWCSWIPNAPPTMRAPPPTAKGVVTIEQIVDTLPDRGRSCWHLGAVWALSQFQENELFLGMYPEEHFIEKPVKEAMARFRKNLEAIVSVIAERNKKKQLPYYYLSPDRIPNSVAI
In short: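 Human recombinant 5-LO (0.5 U) with compound in 50 mM Tris-HCl pH 7.4 reacted with 70 μM arachidonic acid for 10 min at room temperature. Hydroperoxide formation was read via FOX xylenol orange complex at 620 nm after 1 h; compounds at 5 concentrations from 10 μM, in triplicate.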

[4] = test system: dopaminergic neuronal cell line; experiment: High glutamate-induced oxidative stress assay (HGOS); type: cell-based; settings: Mus musculus; 30 mM glutamate, 16 hrs; read-out: EC50, protection against HGOS cell injury and cell death
In short: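 Mouse dopaminergic cells (passage ≤ p11) were grown 72 h at 33 °C, washed in HBSS, then exposed 16 h at 37 °C to compounds in DMEM-No Glu with 1 mM glucose and 30 mM glutamate. Surviving cells were stained 30 min with 5 μM Cell Tracker Green and fluorescence read at 485/538 nm.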

[5] = L-DOPA given 1 hour prior to the pole test, mean±std dev

Compound | EC50 [1] [µM] | effect on the functional deficit produced by MPTP [2] | also measured
CC(C)=CCc1c(O)c2c(c3c1CCC(C)(CCC(=O)O)O3)C1CCC2C1 (stereo not shown) [3-[6-hydroxy-2-methyl-5-(3-methyl-but-2-enyl)-3,4,7,8,9,10-hexahydro-7,10-methano-2H-benzo[h]chromen-2-yl]-propionic acid] | ≤ 20 |  | 
CC1(CCC(=O)O)CCc2cc(O)c3c(c2O1)C1CCC3C1 (stereo not shown) [3-(6-Hydroxy-2-methyl-3,4,7,8,9,10-hexahydro-7,10-methano-2H-benzo[h]chromen-2-yl)-propionic Acid] |  | significantly reduced the functional deficit produced by MPTP | 
COC(=O)CCC1(C)CCc2cc(O)c3c(c2O1)C1CCC3C1 (stereo not shown) [3-(6-Hydroxy-2-methyl-3,4,7,8,9,10-hexahydro-7,10-methano-2H-benzo[h]chromen-2-yl)-propionic Acid Methyl Ester] |  | significantly reduced the functional deficit produced by MPTP | IC50 [3]: ≤ 5 µM
N[C@@H](Cc1ccc(O)c(O)c1)C(=O)O [L-DOPA] |  |  | pole test, percent baseline, Day 1 [2, 5]: 110 ± 13.2 percent baseline; pole test, percent baseline, Day 2 [2, 5]: 97.9 ± 20.0 percent baseline; pole test, percent baseline, Day 3 [2, 5]: 100.1 ± 14.8 percent baseline
CC(=O)Oc1c(CC=C(C)C)c2c(c3c1C1CCC3C1)OC(C)(C)CC2 (stereo not shown) [Acetic acid 2,2-dimethyl-5-(3-methyl-but-2-enyl)-3,4,7,8,9,10-hexahydro-7,10-methano-2H-benzo[h]chromen-6-yl ester] | ≤ 20 |  | EC50 [4]: ≤ 1 µM
CC1(CCC(=O)O)CCc2cc(O)c3c(c2O1)C1CCCC3CC1 (stereo not shown) [3-(6-Hydroxy-2-methyl-3,4,7,8,9,10-hexahydro-7,10-propano-2H-benzo[h]chromen-2-yl)-propionic Acid] | ≤ 20 |  | 
